Counter-ions that a name gives are not always drawn.
Each compound was assayed against Photinus pyralis (firefly) luciferase (Photinus pyralis, UniProt P08659) (assay: biochemical). Conditions: not given.
Photinus pyralis (firefly) luciferase, sequence (P08659 whole entry): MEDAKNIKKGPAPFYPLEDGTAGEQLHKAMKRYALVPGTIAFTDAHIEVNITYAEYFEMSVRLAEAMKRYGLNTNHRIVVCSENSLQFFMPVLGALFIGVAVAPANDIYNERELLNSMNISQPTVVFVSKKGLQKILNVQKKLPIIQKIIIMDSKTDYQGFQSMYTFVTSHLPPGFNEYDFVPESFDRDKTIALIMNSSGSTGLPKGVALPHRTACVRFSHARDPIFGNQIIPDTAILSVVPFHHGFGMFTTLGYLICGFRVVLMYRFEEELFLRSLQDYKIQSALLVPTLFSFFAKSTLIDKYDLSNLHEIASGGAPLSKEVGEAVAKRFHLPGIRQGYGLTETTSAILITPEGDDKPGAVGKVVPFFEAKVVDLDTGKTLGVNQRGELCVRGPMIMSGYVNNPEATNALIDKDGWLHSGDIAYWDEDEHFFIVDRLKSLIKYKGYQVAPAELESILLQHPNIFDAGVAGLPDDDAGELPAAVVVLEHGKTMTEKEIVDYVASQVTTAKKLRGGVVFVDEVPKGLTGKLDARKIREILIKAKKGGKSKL
Type: biochemical
In the case of `CC(C)C1CCC(Cc2ccc(Cl)cc2)C1(O)Cn1cncn1` (stereo not drawn) [Ipconazole], the “Luciferase IC50 (half-maximal inhibitory concentration)” value is reported as “Inactive”. With `COP(=S)(Oc1cc(Cl)c(Br)cc1Cl)c1ccccc1` (stereo not drawn) [Leptophos] the “Luciferase IC50 (half-maximal inhibitory concentration)” value was “Inactive”. `CCCCN1CCCC[C@H]1C(=O)Nc1c(C)cccc1C` [Levobupivacaine hydrochloride] was tested, and the “Luciferase IC50 (half-maximal inhibitory concentration)” value was “Inactive”. With `ClC(c1ccccc1)(c1ccccc1)c1ccccc1` [Trityl chloride] the “Luciferase IC50 (half-maximal inhibitory concentration)” value was “Inactive”.

These compounds were tested against T1, human CYP1A2 (Homo sapiens, UniProt P05177) (assay: not given). Conditions: not given.
T1 sequence (P05177 1-516): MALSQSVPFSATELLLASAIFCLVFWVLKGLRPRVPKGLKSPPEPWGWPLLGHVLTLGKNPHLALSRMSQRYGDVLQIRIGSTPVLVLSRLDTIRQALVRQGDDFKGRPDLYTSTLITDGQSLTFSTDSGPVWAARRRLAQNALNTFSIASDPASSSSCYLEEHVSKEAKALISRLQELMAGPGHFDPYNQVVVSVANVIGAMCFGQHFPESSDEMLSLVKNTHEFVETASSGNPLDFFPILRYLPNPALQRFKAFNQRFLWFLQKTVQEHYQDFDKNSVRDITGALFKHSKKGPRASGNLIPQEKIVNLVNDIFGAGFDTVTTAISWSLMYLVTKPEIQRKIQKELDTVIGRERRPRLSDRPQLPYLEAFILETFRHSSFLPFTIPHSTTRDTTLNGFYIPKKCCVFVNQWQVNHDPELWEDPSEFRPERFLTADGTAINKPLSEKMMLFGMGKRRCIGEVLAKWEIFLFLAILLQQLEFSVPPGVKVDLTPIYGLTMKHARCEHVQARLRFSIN
In the case of `ClC(c1ccccc1)(c1ccccc1)c1ccccc1` [Trityl chloride], the “CYP1A2 AC50 (half-maximal activity concentration)” value is reported as “Inconclusive inhibitor”.

Same assay, conditions: human
For `CC(C)C1CCC(Cc2ccc(Cl)cc2)C1(O)Cn1cncn1` (stereo not drawn) [Ipconazole], the “CYP1A2 Efficacy (in parenthesis)” value was 35.41 ± 4.07 (-90 ± 1) %. For `COP(=S)(Oc1cc(Cl)c(Br)cc1Cl)c1ccccc1` (stereo not drawn) [Leptophos], the “CYP1A2 Efficacy (in parenthesis)” value was 21.38 ± 6.3 (-109 ± 13) %. For `CCCCN1CCCC[C@H]1C(=O)Nc1c(C)cccc1C` [Levobupivacaine hydrochloride], the “CYP1A2 Efficacy (in parenthesis)” value was 17.38 ± 0 (-62 ± 5) %.

What follows are compounds tested against T2, human CYP2C9 (Homo sapiens, UniProt P11712) (assay: not given). Conditions: not given.
T2 sequence (P11712 whole entry): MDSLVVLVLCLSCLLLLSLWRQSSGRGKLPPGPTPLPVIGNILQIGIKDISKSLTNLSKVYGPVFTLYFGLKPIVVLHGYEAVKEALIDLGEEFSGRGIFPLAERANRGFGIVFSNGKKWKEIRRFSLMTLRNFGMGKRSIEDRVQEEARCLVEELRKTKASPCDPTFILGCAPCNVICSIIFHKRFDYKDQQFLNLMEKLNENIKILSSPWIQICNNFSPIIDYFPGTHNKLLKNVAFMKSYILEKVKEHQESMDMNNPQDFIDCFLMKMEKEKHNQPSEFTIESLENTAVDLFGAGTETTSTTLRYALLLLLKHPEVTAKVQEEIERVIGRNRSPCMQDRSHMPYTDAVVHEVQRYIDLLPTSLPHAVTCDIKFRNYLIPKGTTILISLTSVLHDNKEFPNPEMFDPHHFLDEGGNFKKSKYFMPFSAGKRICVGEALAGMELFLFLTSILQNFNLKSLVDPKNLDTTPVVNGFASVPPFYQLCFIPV
In the case of `CCCCN1CCCC[C@H]1C(=O)Nc1c(C)cccc1C` [Levobupivacaine hydrochloride], the “CYP2C9 IC50 (half-maximal inhibitory concentration)” value is reported as “Inactive”.

Same assay, conditions: human
`CC(C)C1CCC(Cc2ccc(Cl)cc2)C1(O)Cn1cncn1` (stereo not drawn) [Ipconazole] was tested, and the “CYP2C9 Efficacy (in parenthesis)” value was 0.79 ± 0.09 (-94 ± 4) %. In the case of `COP(=S)(Oc1cc(Cl)c(Br)cc1Cl)c1ccccc1` (stereo not drawn) [Leptophos], the “CYP2C9 Efficacy (in parenthesis)” value is reported as 0.98 ± 0.25 (-107 ± 5) %.

These compounds were tested against T3, human CYP2C19 (Homo sapiens, UniProt P33261) (assay: not given). Conditions: not given.
T3 sequence (P33261 whole entry): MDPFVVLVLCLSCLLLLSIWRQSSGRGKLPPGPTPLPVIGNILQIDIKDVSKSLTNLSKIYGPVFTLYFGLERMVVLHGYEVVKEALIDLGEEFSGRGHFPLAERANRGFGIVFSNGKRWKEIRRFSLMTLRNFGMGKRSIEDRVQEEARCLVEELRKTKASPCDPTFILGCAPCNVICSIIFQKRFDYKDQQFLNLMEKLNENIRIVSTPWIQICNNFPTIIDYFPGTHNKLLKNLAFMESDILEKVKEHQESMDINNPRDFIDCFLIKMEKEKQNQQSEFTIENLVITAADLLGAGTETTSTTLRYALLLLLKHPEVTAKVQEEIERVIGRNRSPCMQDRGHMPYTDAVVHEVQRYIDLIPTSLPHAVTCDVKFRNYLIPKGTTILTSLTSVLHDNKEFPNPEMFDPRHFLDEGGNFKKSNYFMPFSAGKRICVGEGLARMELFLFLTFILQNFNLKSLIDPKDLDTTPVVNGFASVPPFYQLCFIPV
`CCCCN1CCCC[C@H]1C(=O)Nc1c(C)cccc1C` [Levobupivacaine hydrochloride] was tested, and the “CYP2C19 IC50 (half-maximal inhibitory concentration)” value was “Inactive”.

Same assay, conditions: human
With `CC(C)C1CCC(Cc2ccc(Cl)cc2)C1(O)Cn1cncn1` (stereo not drawn) [Ipconazole] the “CYP2C19 Efficacy (in parenthesis)” value was 0.27 ± 0.07 (-168 ± 31) %. For `COP(=S)(Oc1cc(Cl)c(Br)cc1Cl)c1ccccc1` (stereo not drawn) [Leptophos], the “CYP2C19 Efficacy (in parenthesis)” value was 0.27 ± 0.05 (-122 ± 2) %.

Each compound was assayed against T4, human CYP2D6 (Homo sapiens, UniProt P10635) (assay: not given). Conditions: not given.
T4 sequence (P10635 whole entry): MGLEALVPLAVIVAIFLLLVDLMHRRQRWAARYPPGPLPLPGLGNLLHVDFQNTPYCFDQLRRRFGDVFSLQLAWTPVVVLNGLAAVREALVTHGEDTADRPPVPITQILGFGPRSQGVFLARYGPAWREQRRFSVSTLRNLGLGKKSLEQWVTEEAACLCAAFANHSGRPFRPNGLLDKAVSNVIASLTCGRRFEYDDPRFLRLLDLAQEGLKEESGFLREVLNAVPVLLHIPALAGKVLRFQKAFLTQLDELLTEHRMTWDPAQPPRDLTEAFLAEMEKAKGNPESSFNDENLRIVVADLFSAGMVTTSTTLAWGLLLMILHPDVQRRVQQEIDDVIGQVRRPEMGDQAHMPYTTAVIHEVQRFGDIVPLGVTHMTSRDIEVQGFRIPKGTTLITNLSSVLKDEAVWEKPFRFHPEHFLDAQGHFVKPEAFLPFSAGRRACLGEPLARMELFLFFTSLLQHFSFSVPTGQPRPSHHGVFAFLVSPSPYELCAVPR
`ClC(c1ccccc1)(c1ccccc1)c1ccccc1` [Trityl chloride] was tested, and the “CYP2D6 AC50 (half-maximal activity concentration)” value was “Inconclusive inhibitor”.

Same assay, conditions: human
`CC(C)C1CCC(Cc2ccc(Cl)cc2)C1(O)Cn1cncn1` (stereo not drawn) [Ipconazole] was tested, and the “CYP2D6 Efficacy (in parenthesis)” value was 22.34 ± 2.57 (-107 ± 15) %. In the case of `COP(=S)(Oc1cc(Cl)c(Br)cc1Cl)c1ccccc1` (stereo not drawn) [Leptophos], the “CYP2D6 Efficacy (in parenthesis)” value is reported as 89.36 ± 0 (-42 ± 11) %. `CCCCN1CCCC[C@H]1C(=O)Nc1c(C)cccc1C` [Levobupivacaine hydrochloride] was tested, and the “CYP2D6 Efficacy (in parenthesis)” value was 0.57 ± 0.04 (-109 ± 3) %.

The compounds below were run against T5, CYP3A4 (Homo sapiens, UniProt P08684) (assay: not given). Conditions: not given.
T5 sequence (P08684 whole entry): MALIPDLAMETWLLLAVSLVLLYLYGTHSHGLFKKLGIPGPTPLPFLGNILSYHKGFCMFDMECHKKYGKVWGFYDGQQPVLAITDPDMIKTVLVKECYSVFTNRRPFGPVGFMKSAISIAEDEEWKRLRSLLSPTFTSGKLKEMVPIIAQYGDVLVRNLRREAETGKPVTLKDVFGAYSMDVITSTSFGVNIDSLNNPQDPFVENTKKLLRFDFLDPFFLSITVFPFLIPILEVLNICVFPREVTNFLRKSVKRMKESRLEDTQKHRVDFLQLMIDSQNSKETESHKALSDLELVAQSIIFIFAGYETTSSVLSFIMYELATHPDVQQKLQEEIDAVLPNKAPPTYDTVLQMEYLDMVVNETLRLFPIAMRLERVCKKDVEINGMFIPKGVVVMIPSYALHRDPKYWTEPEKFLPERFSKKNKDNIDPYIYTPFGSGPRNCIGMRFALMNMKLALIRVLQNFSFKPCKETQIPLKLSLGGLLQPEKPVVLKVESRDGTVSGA
With `CC(C)C1CCC(Cc2ccc(Cl)cc2)C1(O)Cn1cncn1` (stereo not drawn) [Ipconazole] the “CYP3A4 Efficacy (in parenthesis)” value was 0.05 ± 0.01 (-89 ± 5) %. For `COP(=S)(Oc1cc(Cl)c(Br)cc1Cl)c1ccccc1` (stereo not drawn) [Leptophos], the “CYP3A4 Efficacy (in parenthesis)” value was 7.39 ± 0.5 (-65 ± 15) %. For `CCCCN1CCCC[C@H]1C(=O)Nc1c(C)cccc1C` [Levobupivacaine hydrochloride], the “CYP3A4 Efficacy (in parenthesis)” value was 9.59 ± 2.39 (-54 ± 7) %. `ClC(c1ccccc1)(c1ccccc1)c1ccccc1` [Trityl chloride] was tested, and the “CYP3A4 IC50 (half-maximal inhibitory concentration)” value was 6.9 ± 1.18 (56 ± 3) µM.

What follows are compounds tested against T1, human CYP1A2 (assay: biochemical). Conditions: CYP1A2 IC50 (half-maximal inhibitory concentration).
Compound `CC(C)C1CCC(Cc2ccc(Cl)cc2)C1(O)Cn1cncn1` (stereo not drawn) [Ipconazole] has an IC50 of 35.4 µM. With `COP(=S)(Oc1cc(Cl)c(Br)cc1Cl)c1ccccc1` (stereo not drawn) [Leptophos] the IC50 was 21.4 µM. In the case of `CCCCN1CCCC[C@H]1C(=O)Nc1c(C)cccc1C` [Levobupivacaine hydrochloride], the IC50 is reported as 17.4 µM. With `ClC(c1ccccc1)(c1ccccc1)c1ccccc1` [Trityl chloride] the IC50 was 75.3 µM.

The compounds below were run against T2, human CYP2C9 (assay: biochemical). Conditions: not given.
For `COP(=S)(Oc1cc(Cl)c(Br)cc1Cl)c1ccccc1` (stereo not drawn) [Leptophos], the IC50 was 0.98 µM.

Same assay, conditions: CYP2C9 AC50 (half-maximal activity concentration)
Work on `ClC(c1ccccc1)(c1ccccc1)c1ccccc1` [Trityl chloride] yielded an AC50 of 1.48 µM.

Same assay, conditions: CYP2C9 IC50 (half-maximal inhibitory concentration)
In the case of `CC(C)C1CCC(Cc2ccc(Cl)cc2)C1(O)Cn1cncn1` (stereo not drawn) [Ipconazole], the IC50 is reported as 0.79 µM. With `ClC(c1ccccc1)(c1ccccc1)c1ccccc1` [Trityl chloride] the IC50 was 1.48 µM.

What follows are compounds tested against T3, human CYP2C19 (assay: biochemical). Conditions: CYP2C19 AC50 (half-maximal activity concentration).
For `ClC(c1ccccc1)(c1ccccc1)c1ccccc1` [Trityl chloride], the AC50 was 0.26 µM.

Same assay, conditions: CYP2C19 IC50 (half-maximal inhibitory concentration)
Compound `CC(C)C1CCC(Cc2ccc(Cl)cc2)C1(O)Cn1cncn1` (stereo not drawn) [Ipconazole] has an IC50 of 0.27 µM. Work on `COP(=S)(Oc1cc(Cl)c(Br)cc1Cl)c1ccccc1` (stereo not drawn) [Leptophos] yielded an IC50 of 0.27 µM. For `ClC(c1ccccc1)(c1ccccc1)c1ccccc1` [Trityl chloride], the IC50 was 0.26 µM.

The compounds below were run against T4, human CYP2D6 (assay: biochemical). Conditions: not given.
In the case of `COP(=S)(Oc1cc(Cl)c(Br)cc1Cl)c1ccccc1` (stereo not drawn) [Leptophos], the IC50 is reported as 89.4 µM.

Same assay, conditions: CYP2D6 IC50 (half-maximal inhibitory concentration)
Work on `CC(C)C1CCC(Cc2ccc(Cl)cc2)C1(O)Cn1cncn1` (stereo not drawn) [Ipconazole] yielded an IC50 of 22.3 µM. Work on `CCCCN1CCCC[C@H]1C(=O)Nc1c(C)cccc1C` [Levobupivacaine hydrochloride] yielded an IC50 of 0.57 µM. `ClC(c1ccccc1)(c1ccccc1)c1ccccc1` [Trityl chloride] showed an IC50 of 62.1 µM.

The compounds below were run against T5, CYP3A4 (assay: biochemical). Conditions: CYP3A4 AC50 (half-maximal activity concentration).
Work on `ClC(c1ccccc1)(c1ccccc1)c1ccccc1` [Trityl chloride] yielded an AC50 of 6.9 µM.

Same assay, conditions: CYP3A4 IC50 (half-maximal inhibitory concentration)
Work on `CC(C)C1CCC(Cc2ccc(Cl)cc2)C1(O)Cn1cncn1` (stereo not drawn) [Ipconazole] yielded an IC50 of 0.05 µM. Work on `COP(=S)(Oc1cc(Cl)c(Br)cc1Cl)c1ccccc1` (stereo not drawn) [Leptophos] yielded an IC50 of 7.39 µM. Work on `CCCCN1CCCC[C@H]1C(=O)Nc1c(C)cccc1C` [Levobupivacaine hydrochloride] yielded an IC50 of 9.59 µM.
